Source: patent US5288709A, “Erythromycin derivatives” (priority 1991, dated 1994)
Converted amounts (≈) assume the structure as drawn. Read-outs that look alike come from different tables or passages of the source.

Key:
Experiment in all cases: In-vitro antimicrobial activity primary screen (agar dilution MIC)
Format in all cases: cell-based
[1] = test system: Staphylococcus aureus 45; conditions: BHI agar, 20-24 h
Protocol: (§1) The antimicrobial spectra of several of the compounds of the present invention were tested as described below.
(§2) Twelve petri dishes containing successive aqueous dilutions of the test compounds, mixed with 10 mL of sterilized Brain Heart Infusion (BHI) agar (Difco 0418-01-5), were prepared. Each plate was inoculated with 1:100 (or 1:10 for slow growing strains (primarily Micrococcus and Streptococcus) dilutions of up to 32 different microorganisms, using a Steers replicator block. The inoculated plates were incubated at 35 37° C. for 20-24 hours. In addition, a control plate, using BHI agar containing no test compound, was prepared and incubated at the beginning and the end of each test.
(§3) An additional plate containing a compound having known susceptibility patterns for the organisms being tested and belonging to the same antibiotic class as the test compounds was also prepared and incubated as a further control, as well as to provide test-to test comparability.
(§4) After incubation, each plate was read. The MIC (minimum inhibitory concentration) is defined as the lowest concentration of test compound yielding no growth, a slight haze, or sparsely isolated colonies on the inoculum spot as compared to the growth control containing no test compound.

[2] = test system: Escherichia coli SS; conditions: BHI agar, 20-24 h
Protocol: as §1, §2, §3, §4

[3] = test system: Staphylococcus epidermidis 3519; conditions: BHI agar, 20-24 h
Protocol: as §1, §2, §3, §4

[4] = test system: Pseudomonas aeruginosa K799/WT; conditions: Pseudomonas aeruginosa K799/WT, BHI agar, 20-24 h
Protocol: as §1, §2, §3, §4

[5] = test system: Klebsiella pneumoniae ATCC 8045; conditions: Klebsiella pneumoniae ATCC 8045, BHI agar, 20-24 h
Protocol: as §1, §2, §3, §4

[6] = test system: Streptococcus pyrogenes EES61; conditions: BHI agar, 20-24 h
Protocol: as §1, §2, §3, §4

[7] = test system: Pseudomonas aeruginosa A5007; conditions: Pseudomonas aeruginosa A5007, BHI agar, 20-24 h
Protocol: as §1, §2, §3, §4

[8] = test system: Enterobacter aerogenes ATCC 13048; conditions: Enterobacter aerogenes ATCC 13048, BHI agar, 20-24 h
Protocol: as §1, §2, §3, §4

[9] = test system: Streptococcus pyrogenes 2548 INDUC; conditions: BHI agar, 20-24 h
Protocol: as §1, §2, §3, §4

[10] = test system: Streptococcus agalactiae CMX 508; conditions: 20-24 h
Protocol: as §1, §2, §3, §4

[11] = test system: Providencia stuartii CMX 640; conditions: Providencia stuartii CMX 640, BHI agar, 20-24 h
Protocol: as §1, §2, §3, §4

[12] = test system: Pseudomonas cepacia 2961; conditions: BHI agar, 20-24 h
Protocol: as §1, §2, §3, §4

[13] = test system: Streptococcus bovis A5169; conditions: BHI agar, 20-24 h
Protocol: as §1, §2, §3, §4

[14] = test system: Staphylococcus aureus 45 RAR2; conditions: BHI agar, 20-24 h
Protocol: as §1, §2, §3, §4

[15] = test system: Escherichia coli DC-2; conditions: Escherichia coli DC-2, BHI agar, 20-24 h
Protocol: as §1, §2, §3, §4

[16] = test system: Enterococcus faecium ATCC 8043; conditions: Enterococcus faecium ATCC 8043, BHI agar, 20-24 h
Protocol: as §1, §2, §3, §4

[17] = test system: Escherichia coli H560; conditions: Escherichia coli H560, BHI agar, 20-24 h
Protocol: as §1, §2, §3, §4

[18] = test system: Acinetobacter SP CMX 669; conditions: Acinetobacter SP CMX 669, BHI agar, 20-24 h
Protocol: as §1, §2, §3, §4

[19] = test system: Micrococcus luteus ATCC 9341; conditions: 20-24 h
Protocol: as §1, §2, §3, §4

[20] = test system: Pseudomonas aeruginosa K799/61; conditions: Pseudomonas aeruginosa K799/61, BHI agar, 20-24 h
Protocol: as §1, §2, §3, §4

[21] = test system: Micrococcus luteus ATCC 4698; conditions: BHI agar, 20-24 h
Protocol: as §1, §2, §3, §4

[22] = test system: Pseudomonas aeruginosa BMH10; conditions: BHI agar, 20-24 h
Protocol: as §1, §2, §3, §4

[23] = test system: Staphylococcus aureus ATCC 6538P; conditions: BHI agar, 20-24 h
Protocol: as §1, §2, §3, §4

[24] = test system: Escherichia coli JUHL; conditions: Escherichia coli JUHL, BHI agar, 20-24 h
Protocol: as §1, §2, §3, §4

[25] = test system: Staphylococcus aureus A5177; conditions: Staphylococcus aureus A5177, BHI agar, 20-24 h
Protocol: as §1, §2, §3, §4

[26] = test system: Staphylococcus aureus CMX 503A; conditions: BHI agar, 20-24 h
Protocol: as §1, §2
as §3, with “comparability. Erythromycin A was used for this purpose.” for “comparability.”
as §4

[27] = test system: Staphylococcus aureus CMX 686B; conditions: BHI agar, 20-24 h
Protocol: as §1, §2
as §3, with “comparability. Erythromycin A was used for this purpose.” for “comparability.”
as §4

[28] = test system: Staphylococcus aureus CMX 553; conditions: BHI agar, 20-24 h
Protocol: as §1, §2
as §3, with “comparability. Erythromycin A was used for this purpose.” for “comparability.”
as §4

CC[C@H]1OC(=O)[C@H](C)[C@@H](O[C@H]2C[C@@](C)(OC)[C@@H](O)[C@H](C)O2)[C@H](C)[C@@H](O[C@@H]2O[C@H](C)C[C@H](N(C)C)[C@H]2O)[C@](C)(O)C[C@@H](C)[C@@H]2O[C@@]1(C)C(=NO)[C@H]2C [Example 18, (9S)-9-Deoxo-11,12-dideoxy-9,12-epoxy-11-hydroxyiminoerythromycin A]
MIC [1]: 0.2 microgram/mL
MIC [2]: 1.56 microgram/mL
MIC [3]: 0.39 microgram/mL
MIC [4]: > 100 microgram/mL
MIC [5]: > 100 microgram/mL
MIC [6]: 0.02 microgram/mL
MIC [7]: > 100 microgram/mL
MIC [8]: > 100 microgram/mL
MIC [9]: 1.56 microgram/mL
MIC ([10]; BHI agar): 0.05 microgram/mL
MIC [11]: > 100 microgram/mL
MIC [12]: > 100 microgram/mL
MIC [13]: 0.1 microgram/mL
MIC [14]: 0.39 microgram/mL
MIC [15]: > 100 microgram/mL
MIC [16]: 0.2 microgram/mL
MIC [17]: > 100 microgram/mL
MIC [18]: > 100 microgram/mL
MIC ([19]; BHI agar): 0.1 microgram/mL
MIC [20]: 6.2 microgram/mL
MIC [21]: 0.1 microgram/mL
MIC [22]: > 100 microgram/mL
MIC [23]: 0.2 microgram/mL
MIC [24]: > 100 microgram/mL
MIC [25]: 0.78 microgram/mL
MIC [26]: 0.2 microgram/mL
MIC [27]: 0.2 microgram/mL
MIC [28]: 0.2 microgram/mL

CC[C@H]1OC(=O)[C@H](C)[C@@H](O[C@H]2C[C@@](C)(OC)[C@H](NS(C)(=O)=O)[C@H](C)O2)[C@H](C)[C@@H](O[C@@H]2O[C@H](C)C[C@H](N(C)C)[C@H]2O)[C@](C)(O)C[C@@H](C)[C@@H]2O[C@@]1(C)C(=O)[C@H]2C [Example 11, (4"R,9S)-9-Deoxo-4",11,12-trideoxy-9,12-epoxy-4"-[(methylsulphonyl)amino]-11-oxoerythromycin A]
MIC ([1]; Staphylococcus aureus, 45, 24 h): 0.39 µg/mL (≈ 0.492 µM)
MIC ([2]; Escherichia coli, 24 h): 0.78 µg/mL (≈ 0.984 µM)
MIC ([3]; Staphylococcus epidermidis, 3519, 24 h): 0.78 µg/mL (≈ 0.984 µM)
MIC ([4]; read-out: MIC): 100 µg/mL (≈ 126 µM)
MIC ([5]; ATCC8045, read-out: MIC): > 100 µg/mL
MIC ([6]; read-out: MIC): < 0.005 µg/mL
MIC ([7]; read-out: MIC): > 100 µg/mL
MIC ([8]; Klebsiella aerogenes, ATCC13048, read-out: MIC): > 100 µg/mL
MIC ([9]; Streptococcus, 2548INDUC, 24 h): 0.78 µg/mL (≈ 0.984 µM)
MIC ([10]; CMX508, BHI agar, read-out: MIC): 0.02 µg/mL (≈ 0.0252 µM)
MIC ([11]; CMX640, read-out: MIC): > 100 µg/mL
MIC ([12]; Burkholderia cepacia, read-out: MIC): > 100 µg/mL
MIC ([13]; Streptococcus equinus, read-out: MIC): < 0.005 µg/mL
MIC ([14]; Staphylococcus aureus, 45RAR2, 24 h): 0.39 µg/mL (≈ 0.492 µM)
MIC ([15]; DC2, read-out: MIC): > 100 µg/mL
MIC ([16]; ATCC8043, read-out: MIC): 0.05 µg/mL (≈ 0.063 µM)
MIC ([17]; read-out: MIC): > 100 µg/mL
MIC ([18]; SPCMX669, read-out: MIC): 50 µg/mL (≈ 63 µM)
MIC ([19]; ATCC9341, BHI agar, read-out: MIC): 0.05 µg/mL (≈ 0.063 µM)
MIC ([20]; Pseudomonas aeruginosa, K799/61, 24 h): 3.1 µg/mL (≈ 3.91 µM)
MIC ([21]; Micrococcus luteus, ATCC4698, 24 h): 0.1 µg/mL (≈ 0.126 µM)
MIC ([22]; read-out: MIC): > 100 µg/mL
MIC ([23]; Staphylococcus aureus, ATCC6538P, 24 h): 0.39 µg/mL (≈ 0.492 µM)
MIC ([24]; read-out: MIC): > 100 µg/mL
MIC ([25]; Staphylococcus aureus, A5177, 24 h): 0.39 µg/mL (≈ 0.492 µM)
MIC ([26]; Staphylococcus aureus, CMX503A, 24 h, read-out: MIC): 0.39 µg/mL (≈ 0.492 µM)
MIC ([27]; CMX686B, read-out: MIC): 0.39 µg/mL (≈ 0.492 µM)
MIC ([28]; Staphylococcus aureus, CMX553, 24 h, read-out: MIC): 0.2 µg/mL (≈ 0.252 µM)
